Source: article PMC4884960, “Long lasting MDM2/Translocator protein modulator: a new strategy for irreversible apoptosis of human glioblastoma cells” (Oncotarget, 2016)

Experiments:
p53 protein = p53 protein accumulation by western blotting; type: cell-based, human
Procedure: U87MG were treated with DMSO (control), EB148 or EB54 for 16 h. […] […] Glyceraldehyde-3-phosphate dehydrogenase (GAPDH) was the loading control ([…], Sigma Aldrich, Milan, Italy, 1:5000). The primary antibodies were detected using the appropriate peroxidase-conjugated secondary antibodies, which were then detected using a chemioluminescent substrate (ECL, Perkin Elmer). Densitometric analysis of the immunoreactive bands was performed using Image J Software.

U87MG cells [1] = experiment: Annexin V and 7-AAD staining (apoptosis); type: cell-based, human; conditions: 1 μM, 24 h
Procedure: Dual staining with Annexin V coniugated to fluorescein-isothiocyanate (FITC) and 7-amino-actinomysin (7-AAD) was performed using the commercially available kit (Muse Annexin V and Dead Cell Kit; Merck KGaA, Darmstadt, Germany).
U87MG cells were treated with DMSO (control), EB54 or EB148 (1 μM) for 24 h. Both floating and adherent cells were collected, and incubated for 10 min at room temperature with the fluorescent reagent. After incubation, the percentages of living, apoptotic and dead cells were acquired and analyzed by MuseTM Cell Analyzer in accordance to the manufacture's guidelines.

U87MG cells [2] = experiment: U87MG cell proliferation, MTS assay; type: cell-based, human; conditions: U87MG, 72 h treatment, then drug-free medium 72 h
Procedure: The effects of compound treatment on U87MG cell viability and proliferation were evaluated by Trypan blue exclusion assays and MTS assay, respectively. […] For quantization of cell viability, blue and bright cells were counted, and viability was calculated as the number of living (bright) and dead (blue) cells in each well.
The absorbance of formazan at 490 nm was measured in a colorimetric assay with an automated plate reader (Victor Wallac 2, Perkin Elmer). For wash-out experiments, U87MG cells were treated with EB148 or EB54 (100 nM-10 μM) for 72 h. Following incubation, medium-containing drugs was replaced by fresh medium, and cells were allowed to growth for the indicated days. At the end of treatments, cell proliferation was measured by MTS assay. The results were calculated by subtracting the mean background from the values obtained from each evaluation and were expressed as the percentage of the control (untreated cells). Sigmoid dose-response curve was generated, from which the IC50 values were derived.

human TSPO [3] = target: T1, human TSPO (Homo sapiens, UniProt P30536); experiment: Equilibrium [3H]PK11195 radioligand binding assay in U87MG cell membranes
T1 construct: aliquots of U87MG cell membranes (20 μg of proteins) were incubated with [^3H]PK 11195 (1.5 nM); endogenous in cells; host or cells: U87MG human glioblastoma cell membranes
T1 sequence (P30536 whole entry): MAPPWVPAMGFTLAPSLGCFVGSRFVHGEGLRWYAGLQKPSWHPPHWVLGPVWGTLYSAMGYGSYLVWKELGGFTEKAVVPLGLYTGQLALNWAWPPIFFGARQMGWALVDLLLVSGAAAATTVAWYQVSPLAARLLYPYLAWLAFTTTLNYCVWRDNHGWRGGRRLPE
Procedure: Equilibrium radioligand binding assays were performed essentially as previously described. […] Samples were rapidly filtered under vacuum through GF/C glass fiber filters.

[4] = test system: mesenchymal Stem Cells (MSCs) isolated from human bone marrow; experiment: Toxicity in non-tumour cells, MSC proliferation by MTS assay; type: cell-based; conditions: 72 h; EB54 at 10 μM; EB148 up to the highest concentration tested
Procedure: […]. At the end of treatments, cell proliferation was measured by MTS assay.

ERK1/2 = ERK1/2 phosphorylation ELISA in U87MG cells; type: cell-based, human
Procedure: Figure 10 ERK phosphorylation and levels of ERK/MDM2 complex in U87MG cells A. U87MG cells were treated with DMSO (control), 1 μΜ EB148 or 1 μΜ EB54 for the indicated times; in some experiments, after 2 h of treatment the medium was replaced by fresh medium not containing drugs for an additional 2 h. At the end of the treatment period the levels of ERK 1/2 phosphorylation were evaluated using ELISA kits, as described in the Methods section. The data are expressed as the percentage of phosphorylated ERK1/2 versus untreated cells (control), which were set at 100%. Data are the mean values ± SEM of three independent experiments performed in triplicate. Analysis of significant differences in mean ERK/MDM2 complex levels was performed using one-way ANOVA with a Bonferroni post-test: * p< 0.05, ** p< 0.01, *** p<0.001 vs. control. […] C. U87MG cells were treated with DMSO (control), 1 μΜ EB148 or 1 μΜ EB54 for the indicated times; in some experiments, after 8 h of treatment, the medium was replaced by fresh medium not containing drugs for an additional 24 h. At the end of the treatment period, U87MG cells were collected and suspended in lysis buffer. Equal amounts of cell lysates were captured on wells pre-coated with MDM2 antibody. After extensive washing, the levels of the ERK/MDM2 complex were quantified using an antibody specific for ERKs, and subsequently an HRP-conjugated antibody and a TMB substrate kit. Data are expressed as percentage of control set to 100%, and represent the mean ± SEM of three independent experiments. The significance of the differences was determined with a one-way ANOVA with Bonferroni post-test: * p<0.05, ** p<0.01, *** p<0.001 vs. control.

human TSPO [5] = target: T1, human TSPO; experiment: TSPO association/dissociation and competition kinetics with [3H]PK11195; type: binding
Description: Association and dissociation rate constants for [^3H]
For competition kinetics, the [^3H]

U87MG cells [6] = experiment: U87MG cell viability, trypan blue exclusion test; type: cell-based, human; conditions: 72 h, maximal effect at 100 μM
Procedure: The effects of compound treatment on U87MG cell viability and proliferation were evaluated by Trypan blue exclusion assays and MTS assay, respectively. U87MG cells were treated with EB148 or EB54 for 72 h. Following treatment, harvested cells were mixed with an equal volume of 0.4% trypan blue dye. For quantization of cell viability, blue and bright cells were counted, and viability was calculated as the number of living (bright) and dead (blue) cells in each well. To establish the effect of MDM2 inhibitors on cell proliferation, cells were treated for 72 h with different concentrations of each compound (0.1 nM–100 μM) for 72 h, and then MTS assay was performed according to the manufacturer's instructions.

[7] = test system: mitochondria isolated from U87MG cells; experiment: Mitochondrial membrane potential (Δψm) dissipation, JC-1 protocol; type: biochemical, human; conditions: 1 μM, 20 min, isolated mitochondria
Procedure: The Δψm dissipation was assessed using the fluorescent dye 5,59,6,69-tetrachloro1,19,3,39-tetraethylbenzimidazolylcarbocyanine iodide (JC-1). Mitochondria were isolated from U87MG cells using the Mitochondria Isolation Kit (Sigma Aldrich, Milan, Italy) following manufacturer's instructions.
Isolated mitochondria were treated for 20 min with EB54 or EB148 (1 μM). In wash-out experiments, mitochondria were then centrifuged at 11.000 × g for 5 min, washed with fresh saline and suspended in JC-1 buffer not containing the drugs. At the end of treatments, 5 μg of control and treated mitochondria were added to the JC-1 dye. The fluorescence (relative fluorescence units, RFU) of the sample was read in a spectrofluorimeter using a time-drive method (one acquisition each 10 sec, for 10 min), where the excitation wavelength was set to 490 nm and emission wavelength at 590 nm. […] Consequently, mitochondrial depolarization is indicated by a decrease in the orange-red fluorescence intensity.

[8] = test system: p53 target genes (p53, p21 and MDM2); experiment: Relative mRNA quantification of p53 target genes by real-time RT-PCR; type: cell-based, human
Procedure: In brief, total RNA was extracted from control cells as well as from cells treated with EB148 or EB54 (1 μM) for different times (8 h, 16 h or 24 h), using RneasyH Mini Kit (Qiagen, Hilden, Germany), according to manufacturer's instructions. cDNA synthesis was performed with 500 ng of RNA using i-Script cDNA synthesis kit (BioRad, Hercules, USA). RT-PCR reactions consisted of 25 μl FluocycleH II SYBRH (Euroclone, Milano, Italy), 1.5 μl of both 10 μM forward and reverse primers (listed in [56]), 3 μl cDNA, and 19 μL of H2O. […] PCR specificity was verified by both the melting curve analysis and gel electrophoresis.

For `CCOC(=O)[C@@H](Cc1ccccc1)NC(=O)[C@H](CC(C)C)NC(=O)C(=O)c1c(-c2ccccc2)[nH]c2ccccc12` [EB54], the “p53 protein levels after wash-out” value (p53 protein; 1 μM for 16 h, then wash-out of 16 h) was “control levels”, the p53 protein levels (p53 protein; 1 μM, 16 h) was “slight but significant increase” and the “phosphatidylserine externalization (early and late apoptosis)” value (U87MG cells [1]) was “significant phoshpatidilserine externalization”. For the same molecule, the “cell proliferation 72 h after cell wash-out” value (U87MG cells [2]) was “significant recovery in proliferative activity”, the Ki (human TSPO [3]) was 108 ± 10 nM and the MSC viability/proliferation [4] was “significantly decreased”. The ERK1/2 phosphorylation (ERK1/2; 1 μM, up to 8 h) was “did not induce any significant ERK1/2 stimulation”, the “effect of blocking p53 on compound-mediated ERK1/2 activation” value (ERK1/2; pifithrin-β 1 μM 30 min, then compound 1 μM 2 h) was “did not significantly affect” and the koff (human TSPO [5]) was 0.000482 s⁻¹. The kon (human TSPO [5]) was 3600 M⁻¹ s⁻¹, the Kd (human TSPO [5]; calculated as ratio of estimated koff and kon) was 134 nM and the “total number of living cells” value (U87MG cells [6]) was “reduced the total number of living cells”. The “JC-1 accumulation (Δψm) compared to control untreated mitochondria” value [7] was “significant reduction”, the “mRNA expression level of p21, p53 and MDM2” value ([8]; 1 μM, 8 and 16 h) was “significant increase” and the “mRNA expression of p21, p53 and MDM2” value ([8]; 1 μM, after 24 h) was “significantly lower than controls”. The “levels of p53 target gene transcripts after wash-out” value ([8]; treated for 2 h (text; legend: 16 h), washed out for 16 h in drug-free medium) was “down-regulated”.
